According to patent US9024041B2, “P38 MAP kinase inhibitors” (Respivert Ltd., priority 2010, dated 2015):
Marks after values point to notes of the source that are not given here.

Legend:
[1] = tested on: LPS-induced TNFα release in d-U937 cells; assay: LPS-induced TNFα release in d-U937 cells; format: cell-based; conditions: Homo sapiens, dU937, 4 h; read-out: LPS/TNFα REC50 d-U937
Method in brief: (§1)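 U937 cells differentiated with PMA (100 ng/mL, 48–72 hr), pre-incubated with compound 2 hr, then stimulated with 0.1 μg/mL E. coli O111:B4 LPS for 4 hr. Supernatant TNFα and IL-8 measured by sandwich ELISA; REC50 (TNFα) and IC50 (IL-8 inhibition vs vehicle) taken from concentration-response curves.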

[2] = tested on: LPS-induced TNFα release in THP-1 cells; assay: LPS-induced TNFα release in THP-1 cells; format: cell-based; conditions: Homo sapiens, 3 μg/mL LPS, 4 hr
Method in brief: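 Human monocytic cells were stimulated with 3 μg/mL E. coli LPS for 4 hr. Supernatant TNFα was measured by sandwich ELISA. Inhibition was taken relative to vehicle control, and IC50 derived from the concentration-response curve.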

[3] = molecular target: T1, Recombinant, phosphorylated p38 MAPKγ (MAPK12:Invitrogen) (Homo sapiens, UniProt P53778); assay: p38 MAPKγ enzyme inhibition assay (FRET, Z-LYTE); format: biochemical; conditions: 2 hr pre-incubation, ATP 100 μM; read-out: Enzyme Inhibition IC50 p38γ
T1 construct: purchased Invitrogen
T1 sequence (P53778 1-367): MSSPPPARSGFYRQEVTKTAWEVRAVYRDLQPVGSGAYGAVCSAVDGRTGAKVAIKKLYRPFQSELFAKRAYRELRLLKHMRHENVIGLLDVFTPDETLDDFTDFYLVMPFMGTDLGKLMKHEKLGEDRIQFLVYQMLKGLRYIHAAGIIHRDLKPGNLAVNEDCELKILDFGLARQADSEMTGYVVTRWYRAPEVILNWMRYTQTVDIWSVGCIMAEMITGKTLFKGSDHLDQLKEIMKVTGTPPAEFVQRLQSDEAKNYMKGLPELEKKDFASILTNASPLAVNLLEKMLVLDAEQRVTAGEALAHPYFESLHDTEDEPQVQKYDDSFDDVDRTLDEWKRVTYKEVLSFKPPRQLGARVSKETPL

[4] = tested on: Differentiated U937 cells; assay: MTT assay: cell viability on exposure to test compounds; format: cell-based, human; conditions: percentage loss of cell viability vs vehicle; for MTT Assay (Viability) 4 h d-U937: 5% FCS; for MTT Assay (Viability) 24 h d-U937: 10% FCS
Method in brief: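 Differentiated U937 cells were pre-incubated with compound for either 4 h in 5% FCS or 24 h in 10% FCS, then given MTT for 1 h. Formazan was dissolved in DMSO and read at 550 nm. Viability loss is expressed as % versus 0.5% DMSO vehicle, so an apparent gain appears as a negative value.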

[5] = tested on: LPS-induced neutrophil accumulation in Balb/c mice; assay: LPS-induced neutrophil accumulation in mice; format: in vivo
Experimental: LPS-Induced Neutrophil Accumulation in Mice
Non-fasted Balb/c mice were dosed by the intra tracheal route with either vehicle, or the test substance at the indicated times (within the range 2-12 hr) before stimulation of the inflammatory response by application of an LPS challenge. At T=0, mice were placed into an exposure chamber and exposed to LPS. After a further 8 hr the animals were anesthetized, their tracheas cannulated and BALF extracted by infusing and then withdrawing from their lungs 1.0 mL of PBS via the tracheal catheter. Total and differential white cell counts in the BALF samples were measured using a Neubaur haemocytometer. Cytospin smears of the BALF samples were prepared by centrifugation at 200 rpm for 5 min at RT and stained using a DiffQuik stain system (Dade Behring). Cells were counted using oil immersion microscopy.

[6] = tested on: LPS-induced IL-8 release in d-U937 cells; assay: LPS-induced IL-8 release in d-U937 cells; format: cell-based; conditions: Homo sapiens, dU937, 0.1 μg/mL LPS, 4 hr
Method in brief: as §1

[7] = tested on: Poly I:C-induced ICAM-1 expression in BEAS2B cells; assay: Poly I:C-induced ICAM-1 induction in BEAS2B cells; format: cell-based; conditions: Homo sapiens, BEAS-2B, poly I:C 1 μg/mL, 18 hr, read-out: PolyI:C/ICAM1 IC50 BEAS2B
Method in brief: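 Human bronchial epithelial BEAS2B cells were pre-incubated with compound for 2 h, then transfected with poly I:C at 1 μg/mL. Surface ICAM-1 was measured 18 h later by cell-based ELISA (OD450–655), normalised to crystal-violet cell number (OD595). IC50 was taken from the concentration–response curve against vehicle.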

[8] = molecular target: T2, p38 MAPKα isoform (MAPK14: Invitrogen) (Homo sapiens, UniProt Q16539); assay: p38 MAPKα enzyme inhibition assay (FRET, Z-LYTE, via MAPKAP-K2 activation); format: biochemical; conditions: 2 hr pre-incubation, ATP 10.0 μM; read-out: Enzyme Inhibition IC50 p38α
T2 construct: purchased Invitrogen
T2 sequence (Q16539 whole entry, canonical isoform): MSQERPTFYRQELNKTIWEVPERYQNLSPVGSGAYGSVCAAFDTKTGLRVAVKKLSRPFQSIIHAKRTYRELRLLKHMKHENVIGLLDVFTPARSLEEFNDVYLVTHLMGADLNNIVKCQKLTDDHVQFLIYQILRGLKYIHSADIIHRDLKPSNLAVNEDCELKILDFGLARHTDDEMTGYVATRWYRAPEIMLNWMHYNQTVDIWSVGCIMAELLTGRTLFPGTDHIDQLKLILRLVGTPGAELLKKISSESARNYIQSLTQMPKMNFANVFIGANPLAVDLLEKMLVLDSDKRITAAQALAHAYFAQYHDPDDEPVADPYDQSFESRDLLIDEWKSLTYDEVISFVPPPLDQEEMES
Experimental: The enzyme inhibitory activities of compounds disclosed herein were determined by fluorescence resonance energy transfer (FRET) using synthetic peptides labelled with both donor and acceptor fluorophores (Z-LYTE, Invitrogen Ltd., Paisley, UK). Recombinant, phosphorylated p38 MAPKγ (MAPK12:Invitrogen) was diluted in HEPES buffer, mixed with the test compound at the desired final concentrations and incubated for 2 hr at RT. The FRET peptide (2 μM) and ATP (100 μM) were added to the enzyme/compound mixture and incubated for 1 hr. Development reagent (protease) was added for 1 hr prior to detection in a fluorescence microplate reader (Varioskan® Flash, ThermoFisher Scientific). The site-specific protease cleaves non-phosphorylated peptide only and eliminates the FRET signal. Phosphorylation levels of each reaction were calculated using the ratio of coumarin emission (donor) over fluorescein emission (acceptor) for which high ratios indicate high phosphorylation and low ratios indicate low phosphorylation levels.
For the p38 MAPKα isoform (MAPK14: Invitrogen), enzyme activity was evaluated indirectly by determining the level of activation/phosphorylation of the down-stream molecule, MAPKAP-K2. The p38 MAPKα protein was mixed with the test compound for 2 hr at RT. […] Development reagent was then added and the mixture incubated for 1 hr before detection by fluorescence completed the assay protocol.

[9] = 0.2 mg/mL intra tracheal, 8 h pre-dose before LPS
[10] = 0.2 mg/mL intra tracheal, 2 hr pre-dose before LPS
[11] = 0.2 mg/mL intra tracheal, 12 h pre-dose before LPS

EC50 [1] [nM] | IC50 [2] [nM] | IC50 [3] [nM] | IC50 [6] [nM] | IC50 [8] [nM] | Structure (SMILES) | MTT Assay (Viability) 4 h d-U937 ([4]; 1 μg/mL) [%] | MTT Assay (Viability) 24 h d-U937 ([4]; 1 μg/mL) [%] | % inhibition of Influx [5, 9] [%] | Neutrophil numbers in BAL [5, 9] | inhibitory effects versus neutrophil accumulation into the BALF (in words) ([5]; dosed 8 hr prior to LPS challenge) | IC50 [7] [nM] | MTT Assay (Viability) 4 h d-U937 ([4]; 10 μg/mL) | MTT Assay (Viability) 24 h d-U937 ([4]; 10 μg/mL) | % inhibition (neutrophil numbers in BAL) [5, 10] [%] | Neutrophil numbers in BAL [5, 10] | % inhibition (neutrophil numbers in BAL) [5, 11] [%] | Neutrophil numbers in BAL [5, 11] | inhibition of neutrophil accumulation into the BALF (in words) ([5]; administered 2 and 12 hr prior to LPS challenge)
0.3 | 2.2 | 48.7 | 0.5 | 18.9 | CC(C)(C)c1cc(NC(=O)Nc2ccc(Oc3ccnc(NC(N)=O)c3)c3ccccc23)n(-c2ccc(S(C)(=O)=O)cc2)n1 [Example 45, 1-(3-tert-butyl-1-(4-(methylsulfonyl)phenyl)-1H-pyrazol-5-yl)-3-(4-((2-ureidopyridin-4-yl)oxy)naphthalen-1-yl)urea] | −14.4 | 13.9 | 24 | 13.2 ± 2.2 × 10^5/mL | inhibitory effects | 30.9 | – | – | – | – | – | – | –
17.6 | 6.5 | 443 | 21.9 | 18.8 | CCNC(=O)Nc1cc(C(=O)c2ccc(NC(=O)Nc3cc(C(C)(C)C)nn3-c3ccc(C)cc3)c3ccccc23)ccn1 [Example 67, 1-(3-tert-butyl-1-p-tolyl-1H-pyrazol-5-yl)-3-(4-(2-(3-ethylureido)isonicotinoyl)naphthalen-1-yl)urea] | – | – | – | – | – | 13.8 | −9.9^b % | 8.8^b % | 40 | 10.5 ± 1.5 × 10^5/ml | 20 | 14.2 ± 1.7 × 10^5/ml | marked and long-lasting inhibition
